The record followed here is US10995083B2, “Cocrystal of 2-(6-methyl-pyridine-2-yl)-3-yl-[6-amide-quinoline-4-yl]-5,6-dihydro-4H-pyrrole[1,2-b]pyrazole, preparation method therefor, and pharmaceutical composition” (Hangzhou SoliPharma Co., Ltd., priority 2017, dated 2021).

The Solubility is the dissolved amount per volume that the medium holds.

The nature of series [1]: apparent water solubility test. The format is physicochemical. The settings on record: for Solubility: apparent water solubility, 25° C.±2° C., clarity observed by naked eye, 5 mg sample, max 100 mL water; for apparent water solubility: as shown in Comparative Example 1. On the procedure:
Accurately weighed 5 mg samples in a 200 mL flask which was in a water bath with temperature 25° C.±2° C., added water in a geometric fashion the flask, stirred (about 200 r/min), and observed by naked eyes to see if it was clear. Water was added every 3 mins, maximum water amount 100 mL.

Series [2] can be described thus: storage phase stability of crystalline form at 25° C./60% relative humidity. Conditions: 6 months of storage at 25° C./60% relative humidity. The format is physicochemical.

Counter-ions that a name gives are not always drawn.

Turning to `Cc1cccc(-c2nn3c(c2-c2ccnc4ccc(C(N)=O)cc24)CCC3)n1` [LY2157299 fumarate cocrystal form, 2-(6-methyl-pyridin-2-yl)-3-(6-amido-quinolin-4-yl)-5,6-dihydro-4H-pyrrolo[1,2-b]pyrazole], in series [1], the Solubility stood at 330 µg/mL and the apparent water solubility entry is listed as “about 330 ug/mL”. The “crystalline form after storage (phase stability)” value in series [2] is on record as “remained its original crystalline form”.
With `Cc1cccc(-c2nn3c(c2-c2ccnc4ccc(C(N)=O)cc24)CCC3)n1` [LY2157299 Monohydrate, 2-(6-methyl-pyridin-2-yl)-3-(6-amido-quinolin-4-yl)-5,6-dihydro-4H-pyrrolo[1,2-b]pyrazole, reference compound], in series [1], the Solubility is <50 µg/mL and the apparent water solubility result is “less than 50 ug/mL”.
Regarding `Cc1cccc(-c2nn3c(c2-c2ccnc4ccc(C(N)=O)cc24)CCC3)n1` [LY2157299 succinate cocrystal form, 2-(6-methyl-pyridin-2-yl)-3-(6-amido-quinolin-4-yl)-5,6-dihydro-4H-pyrrolo[1,2-b]pyrazole], in series [1], the Solubility worked out at 130 µg/mL and the apparent water solubility result is “about 130 ug/mL”. The “crystalline form after storage (phase stability)” value in series [2] is listed as “remained its original crystalline form”.
